# Legend:
# LNCaP cells [1] = assay: Cellular efflux assay; assay type: cell-based, human
# Protocol: (§1) Here, 12-well polylysine-coated Cellbind plates were seeded with 150 × 10^3 LNCaP cells with 1.75 mL of cell media. At 70–100% confluence (3 days of growth), the cell medium was changed and 37 kBq of ^64Cu-DOTHA2-PSMA in 1 mL of cell medium was added to each well of group 1 and 160 kBq to each of group 2.
# For efflux assays, after adding ^64Cu-DOTHA2-PSMA, cells were incubated for 60 min for the time points 15 min to 4 h (group 1) and incubated for 4 h for the time points 4 h to 48 h (group 2). After incubation, the medium was removed, cells were washed with 1 mL of cold PBS, 1 mL of cell media was added and, similarly to uptake and internalization, cells were again incubated in nonradioactive media for 0, 15, 30, 45, 60 min, 2 h, 4 h (group 1) and 4 h, 8 h, 24 h, 32 h or 48 h (group 2) (3 wells per time point). After respective incubation times per well, the medium was removed, and cells were washed with 1 mL of cold PBS, then removed from the well with 1 mL of trypsin to measure the residual radioactivity by gamma counter. The results of residual activity were expressed as percentage of the 1 h (Group 1) or 4 h (Group 2) uptake activity (0 min of efflux time-point) as a function of time for 10^6 cells.
# (§2) All the assays were performed at least 3 times, each with different ^64Cu-DOTHA2-PSMA production and cell passage. Cells were counted in 3 wells for each protocol (uptake, internalization, and efflux) on day 1 and day 3 of each experiment and an average for cells numbers at day 2.
# [2] = Plasma stability (ex vivo) and protein binding in mouse serum/plasma; assay type: in vitro ADME; details: for 64Cu released from Proteins / 64Cu-DOTHA2-PSMA Released from Proteins: after 10% TFA; for proportion of free 64Cu: excess natCu-DOTHA2-PSMA
# Protocol: Plasma stability studies were carried out by incubating ^64Cu-DOTHA2-PSMA (50 MBq in 250 μL PBS buffer) in 250 μL of mouse serum at 37 °C for up to 24 h. The plasma was then mixed twice with ethanol (1:1) to precipitate all the proteins. The samples were subjected to vortex mixing for 1 min and then centrifugation for 10 min at 7000 rpm. Plasma proteins were separated from the soluble component by ultracentrifugation and the radioactivity was assessed. The supernatant fraction was assayed by radio-TLC on C18 plates and by UPLC; free ^64Cu(OAc)2 and ^64Cu-DOTHA2-PSMA were used as standards. The radio-TLCs were eluted with 0.1 M sodium citrate buffer at pH 5.5 using an Instant Imager system (BioScan, DC, U.S.A.) for radiodetection. The precipitated proteins were again subjected to 10% TFA, vortexed for 2–3 min, and then centrifuged for 10 min at 7000 rpm. The separation and analysis for the supernatant and the proteins were performed in the same manner.
# The protein binding ability was evaluated by incubating ^64Cu-DOTHA2-PSMA (100 MBq) in phosphate buffer (250 μL, pH 7) at 37 °C and fresh mouse serum (250 μL) and for 1 h, 4 h, and 24 h. Plasma proteins were precipitated by the addition of ethanol (1:1, v/v) to the plasma samples, followed by centrifugation at 7000 rpm for 5 min at room temperature and separation of the supernatant. This process was repeated three times with the same volume of ethanol, and the supernatants were pooled. The radioactivity content of the supernatant and the precipitated protein were measured in a dose calibrator to obtain the protein binding percentage.
# LNCaP cells [3] = assay: Cellular uptake and internalization assays; assay type: cell-based, human; details: for cellular uptake: n = 9
# Protocol: as §1
# Uptake and internalization assay cells were incubated for 15, 30, 45, 60 min, 2 h, 3 h, and 4 h in group 1 or 4 h, 8 h, 12 h, 24 h, 36 h, and 48 h in group 2 (3 wells per time point in all groups). Repetition of the 4 h time point was used to ensure reproducibility. After incubation, the medium was removed, and cells were washed with 1 mL of cold PBS. For the uptake assays, cells were directly treated with 1 mL of trypsin to be collected and their activity was assayed (HIDEX AMG Gamma Counter 425-601). For internalization assays, cells were incubated with 1 mL of acidic glycine (50 mM, pH = 2,8) for 5 min to remove membrane-bound ^64Cu-DOTHA2-PSMA, washed with 3 mL of cold PBS, and collected using 1 mL of trypsin to be measured in the gamma-counter. Uptake and internalization results were expressed as the percentage of activity injected in the well (IA) in functions of time, normalized to 10^6 cells.
# as §2
# [4] = Lipophilicity (log D), octanol/PBS partition; assay type: physicochemical; details: octanol / PBS pH 7.4, triplicate
# Protocol: For log D measurements, 8 MBq of ^64Cu-DOTHA2-PSMA was added to a pre-saturated mixture of phosphate-buffered saline pH 7.4 (500 µL) and octanol (500 µL). Samples were shaken for 30 min at room temperature, centrifuged at 7000 rpm for 5 min, and 100 µL of each phase was counted using a Packard Cobra gamma counter. Experiments were performed in triplicate and the value was presented as log Dmean ± SD, where D was calculated as D = (Average of CPM in octanol / CPM in PBS).
# [5] = ex vivo, mouse plasma, 100 equiv. natCu-DOTHA2-PSMA, 1 h
# [6] = ex vivo, mouse plasma, 100 equiv. natCu-DOTHA2-PSMA, 4 h
# [7] = ex vivo, mouse plasma, 100 equiv. natCu-DOTHA2-PSMA, 24 h
compound,measurement,setting,value
CN([O-])C(=O)CN1CCN(CC(=O)NCC2CCC(C(=O)NC(Cc3ccc4ccccc4c3)C(=O)NCCCCC(NC(=O)NC(CCC(=O)O)C(=O)O)C(=O)O)CC2)CCN(CC(=O)N(C)[O-])CCN(CC(=O)N(C)O)CC1.[64Cu+2] (stereo not shown) [^64Cu-DOTHA2-PSMA],Retained activity normalized to time 0,"LNCaP cells [1]; 1h incubation, efflux time 0.25 h",100.93%
same,Retained activity normalized to time 0,"LNCaP cells [1]; 1h incubation, efflux time 0.50 h",105.51%
same,Retained activity normalized to time 0,"LNCaP cells [1]; 1h incubation, efflux time 0.75 h",94.38%
same,Retained activity normalized to time 0,"LNCaP cells [1]; 1h incubation, efflux time 1 h",77.52%
same,Retained activity normalized to time 0,"LNCaP cells [1]; 1h incubation, efflux time 2 h",80.95%
same,Retained activity normalized to time 0,"LNCaP cells [1]; 1h incubation, efflux time 4 h",64.04%
same,Retained activity normalized to time 0,"LNCaP cells [1]; 4h incubation, efflux time 4 h",66.23%
same,Retained activity normalized to time 0,"LNCaP cells [1]; 4h incubation, efflux time 8 h",51.88%
same,Retained activity normalized to time 0,"LNCaP cells [1]; 4h incubation, efflux time 24 h",35.10%
same,Retained activity normalized to time 0,"LNCaP cells [1]; 4h incubation, efflux time 32 h",34.27%
same,Retained activity normalized to time 0,"LNCaP cells [1]; 4h incubation, efflux time 48 h",48.61%
same,"demetallation or degradation in mouse serum (radio-UPLC, radio-TLC)","[2]; 37 °C, up to 24 h",No major demetallation or degradation
same,change of signal bound to plasma proteins on adding excess natCu-DOTHA2-PSMA,"[2]; ex vivo, 4 h",1%
same,change of signal bound to plasma proteins on adding excess natCu-DOTHA2-PSMA,"[2]; ex vivo, 24 h",6%
same,64Cu in the Supernatant,"[2]; ex vivo, mouse plasma 37 °C, 1 h, % of total signal",0%
same,64Cu in the Supernatant,"[2]; ex vivo, mouse plasma 37 °C, 4 h, % of total signal",1.98%
same,64Cu in the Supernatant,"[2]; ex vivo, mouse plasma 37 °C, 24 h, % of total signal",1.28%
same,64Cu and 64Cu-DOTHA2-PSMA Bound to Plasma Proteins,[2]; [5],24%
same,64Cu in the Supernatant,[2]; [5],0%
same,64Cu released from Proteins,[2]; [5],0.82%
same,64Cu and 64Cu-DOTHA2-PSMA Bound to Plasma Proteins,[2]; [6],33%
same,64Cu in the Supernatant,[2]; [6],3.35%
same,64Cu released from Proteins,[2]; [6],0.84%
same,64Cu and 64Cu-DOTHA2-PSMA Bound to Plasma Proteins,[2]; [7],30%
same,64Cu in the Supernatant,[2]; [7],5.60%
same,64Cu released from Proteins,[2]; [7],2.14%
same,64Cu and 64Cu-DOTHA2-PSMA Bound to Plasma Proteins,"[2]; ex vivo, mouse plasma, 1 h",24%
same,signal attributed to free 64Cu overall (supernatant and precipitate),"[2]; ex vivo, mouse plasma, 1 h",0.79%
same,64Cu-DOTHA2-PSMA Released from Proteins,"[2]; ex vivo, mouse plasma, 1 h",15%
same,64Cu released from Proteins,"[2]; ex vivo, mouse plasma, 1 h, % of total signal",0.79%
same,64Cu and 64Cu-DOTHA2-PSMA Bound to Plasma Proteins,"[2]; ex vivo, mouse plasma, 4 h",34%
same,signal attributed to free 64Cu overall (supernatant and precipitate),"[2]; ex vivo, mouse plasma, 4 h",2.62%
same,64Cu-DOTHA2-PSMA Released from Proteins,"[2]; ex vivo, mouse plasma, 4 h",21%
same,64Cu released from Proteins,"[2]; ex vivo, mouse plasma, 4 h, % of total signal",0.64%
same,64Cu and 64Cu-DOTHA2-PSMA Bound to Plasma Proteins,"[2]; ex vivo, mouse plasma, 24 h",36%
same,"free 64Cu, share of the plasma supernatant signal (UPLC)","[2]; ex vivo, mouse plasma, 24 h",less than 3%
same,64Cu-DOTHA2-PSMA Released from Proteins,"[2]; ex vivo, mouse plasma, 24 h",21%
same,64Cu released from Proteins,"[2]; ex vivo, mouse plasma, 24 h, % of total signal",0.65%
same,proportion of free 64Cu,"[2]; ex vivo, mouse plasma, 1 h",0.82%
same,proportion of free 64Cu,"[2]; ex vivo, mouse plasma, 4 h",4.19%
same,proportion of free 64Cu,"[2]; ex vivo, mouse plasma, 24 h",7.75%
same,cellular uptake,LNCaP cells [3]; 30 min,22.0 ± 8.8 % IA/10^6 cells
same,internalization,LNCaP cells [3]; 2 h,12.2 ± 6.7 % IA/10^6 cells
same,internalization,LNCaP cells [3]; 48 h,34.1 ± 4.9 % IA/10^6 cells
same,cellular uptake,LNCaP cells [3]; 48 h,34.5 ± 13.6 % IA/10^6 cells
same,log D,[4],-0.96 ± 0.61

# — article PMC9412875, “^64Cu-DOTHA2-PSMA, a Novel PSMA PET Radiotracer for Prostate Cancer with a Long Imaging Time Window” (Pharmaceuticals, 2022)
